Experimental data published in US20130116263A1, “PAK INHIBITORS FOR THE TREATMENT OF CELL PROLIFERATIVE DISORDERS” (AFRAXIS, INC., priority 2011, published 2013).
Like-named read-outs stand apart in the source and are kept apart here.

Tests used:
Type in all cases: biochemical
[1] = target: PAK1 (Homo sapiens, UniProt Q13153); assay: In vitro PAK inhibition assay (Z'-LYTE, SelectScreen), PAK1; details: read-out: PAK1 IC50
Protocol: (§1) Compounds are screened in 1% DMSO (final) in the well. For 10 point titrations, 3-fold serial dilutions are conducted. All Peptide/Kinase Mixtures are diluted to a 2× working concentration in the appropriate Kinase Buffer
The 2×PAK1/Ser/Thr 19 mixture is prepared in 50 mM HEPES pH 7.5, 0.01% BRIJ-35, 10 mM MgCl2, 1 mM EGTA.
(§2) 1. Add the following solutions to a well in a 384-well plate: • 2.5 μL of 4× Test Compound OR (100 nL 100× Test Compound plus 2.4 μL kinase buffer) • 5 μL of 2× Peptide/Kinase (PAK) Mixture • 2.5 μL of 4×ATP Solution
(§3) 3. Incubate the PAK Kinase Reaction at room temperature for 60-minutes
(§4) 4. Add 5 μL of Development Reagent Solution to each well
(§5) 6. Incubate the Development Reaction for 60-minutes
(§6) 7. Determine the fluorescence using a fluorescence plate reader
(§7) SelectScreen® Kinase Profiling Service uses XLfit from IDBS.
(§8) The representative IC50 value with a known inhibitor for each kinase was determined at the ATP bin nearest to the ATP Km app.

[2] = target: PAK4 (Homo sapiens, UniProt O96013); assay: In vitro PAK inhibition assay (Z'-LYTE, SelectScreen), PAK4
Protocol: as §1
The 2×PAK-4/Ser/Thr 20 mixture is prepared in 50 mM HEPES pH 7.5, 0.01% BRIJ-35, 10 mM MgCl2, 1 mM EGTA. The final 10 μL Kinase Reaction consists of 0.1-0.75 ng PAK-4 and 2 μM Ser/Thr 20 in 50 mM HEPES pH 7.5, 0.01% BRIJ-35, 10 mM MgCl2, 1 mM EGTA. After the 1 hour Kinase Reaction incubation, 5 μL of a 1:256 dilution of Development Reagent A is added.
as §2, §3, §4, §5, §6
SelectScreen® Kinase Profiling Service uses XLfit from IDBS. The dose response curve is curve fit to model number 205 (sigmoidal dose-response model).
The table below provides specifications and data around each kinase. The representative IC50 value with a known inhibitor for each kinase was determined at the ATP bin nearest to the ATP Km app.

[3] = target: PAK2 (PAK65) (Homo sapiens, UniProt Q13177); assay: In vitro PAK inhibition assay (Z'-LYTE, SelectScreen), PAK2; details: read-out: PAK2 IC50
Protocol: as §1
The 2×PAK2 (PAK65)/Ser/Thr 20 mixture is prepared in 50 mM HEPES pH 7.5, 0.01% BRIJ-35, 10 mM MgCl2, 1 mM EGTA. The final 10 μL Kinase Reaction consists of 0.29-6 ng PAK2 (PAK65) and 2 μM Ser/Thr 20 in 50 mM HEPES pH 7.5, 0.01% BRIJ-35, 10 mM MgCl2, 1 mM EGTA.
as §2, §3, §4, §5, §6, §7, §8

[4] = target: PAK3 (Homo sapiens, UniProt O75914); assay: In vitro PAK inhibition assay (Z'-LYTE, SelectScreen), PAK3
Protocol: as §1
The 2×PAK3/Ser/Thr 20 mixture is prepared in 50 mM HEPES pH 7.5, 0.01% BRIJ-35, 10 mM MgCl2, 1 mM EGTA.
as §2, §3, §4, §5, §6, §7, §8

PAK3, sequence (O75914 1-544 isoform O75914-2): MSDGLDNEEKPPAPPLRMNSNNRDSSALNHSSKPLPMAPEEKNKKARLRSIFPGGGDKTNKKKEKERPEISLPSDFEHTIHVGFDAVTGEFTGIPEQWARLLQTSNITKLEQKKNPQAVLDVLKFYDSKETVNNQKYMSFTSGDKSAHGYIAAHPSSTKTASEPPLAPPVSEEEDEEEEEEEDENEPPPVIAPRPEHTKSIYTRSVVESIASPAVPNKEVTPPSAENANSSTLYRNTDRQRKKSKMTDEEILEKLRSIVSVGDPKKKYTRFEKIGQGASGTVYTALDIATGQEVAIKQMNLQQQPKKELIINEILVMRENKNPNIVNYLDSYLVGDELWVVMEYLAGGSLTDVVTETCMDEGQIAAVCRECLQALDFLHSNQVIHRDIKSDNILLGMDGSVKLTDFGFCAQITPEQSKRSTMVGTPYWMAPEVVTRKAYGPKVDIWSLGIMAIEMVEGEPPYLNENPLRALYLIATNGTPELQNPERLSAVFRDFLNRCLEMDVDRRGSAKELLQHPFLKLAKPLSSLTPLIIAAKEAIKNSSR
PAK1, sequence (Q13153 whole entry): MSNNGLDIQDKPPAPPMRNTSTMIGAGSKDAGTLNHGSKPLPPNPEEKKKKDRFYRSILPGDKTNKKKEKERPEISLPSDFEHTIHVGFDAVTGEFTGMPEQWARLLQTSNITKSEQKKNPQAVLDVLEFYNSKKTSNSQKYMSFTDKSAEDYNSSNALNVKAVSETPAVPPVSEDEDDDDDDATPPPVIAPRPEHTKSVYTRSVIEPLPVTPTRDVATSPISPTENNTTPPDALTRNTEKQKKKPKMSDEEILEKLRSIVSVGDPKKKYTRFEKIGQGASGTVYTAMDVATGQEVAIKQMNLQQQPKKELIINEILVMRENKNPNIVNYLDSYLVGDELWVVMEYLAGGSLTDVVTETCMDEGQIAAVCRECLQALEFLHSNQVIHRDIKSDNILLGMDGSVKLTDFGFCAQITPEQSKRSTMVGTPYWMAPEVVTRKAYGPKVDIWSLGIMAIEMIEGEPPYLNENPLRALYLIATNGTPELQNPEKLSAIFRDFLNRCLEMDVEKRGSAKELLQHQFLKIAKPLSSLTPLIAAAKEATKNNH
PAK2 (PAK65), sequence (Q13177 whole entry): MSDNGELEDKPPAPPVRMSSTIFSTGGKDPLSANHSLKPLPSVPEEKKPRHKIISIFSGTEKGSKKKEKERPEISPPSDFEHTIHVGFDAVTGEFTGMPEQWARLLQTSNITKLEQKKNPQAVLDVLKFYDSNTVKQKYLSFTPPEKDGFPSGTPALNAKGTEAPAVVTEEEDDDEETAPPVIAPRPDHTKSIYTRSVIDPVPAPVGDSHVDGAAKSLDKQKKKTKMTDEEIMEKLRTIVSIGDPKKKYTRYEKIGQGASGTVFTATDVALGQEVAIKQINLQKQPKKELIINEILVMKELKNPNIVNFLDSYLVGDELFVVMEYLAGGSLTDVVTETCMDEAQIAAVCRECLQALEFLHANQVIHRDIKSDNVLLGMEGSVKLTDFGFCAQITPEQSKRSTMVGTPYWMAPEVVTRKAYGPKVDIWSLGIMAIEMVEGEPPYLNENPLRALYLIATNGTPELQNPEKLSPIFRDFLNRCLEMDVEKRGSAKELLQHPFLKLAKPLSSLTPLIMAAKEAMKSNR
PAK4, sequence (O96013 whole entry): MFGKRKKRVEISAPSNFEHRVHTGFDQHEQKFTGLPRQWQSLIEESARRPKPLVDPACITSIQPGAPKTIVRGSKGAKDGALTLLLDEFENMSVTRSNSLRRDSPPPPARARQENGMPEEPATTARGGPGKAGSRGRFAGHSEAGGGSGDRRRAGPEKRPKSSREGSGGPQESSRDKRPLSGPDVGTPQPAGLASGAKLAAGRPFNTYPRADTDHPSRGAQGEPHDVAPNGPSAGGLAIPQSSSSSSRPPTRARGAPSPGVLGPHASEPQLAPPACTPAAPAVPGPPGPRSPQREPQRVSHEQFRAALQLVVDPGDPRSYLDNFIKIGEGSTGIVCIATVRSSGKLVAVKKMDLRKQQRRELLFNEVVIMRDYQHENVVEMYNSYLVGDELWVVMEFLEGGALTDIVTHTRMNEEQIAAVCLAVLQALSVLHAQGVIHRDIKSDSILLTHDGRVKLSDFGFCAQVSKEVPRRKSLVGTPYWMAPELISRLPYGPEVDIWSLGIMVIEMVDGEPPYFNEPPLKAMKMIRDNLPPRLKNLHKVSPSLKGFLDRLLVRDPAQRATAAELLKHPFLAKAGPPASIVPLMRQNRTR

| Compound | IC50 [1] | IC50 [2] | IC50 [3] | IC50 ([4]; read-out: PAK3 IC50) | IC50 ([4]; PAK3 IC50 (nM)) |
| --- | --- | --- | --- | --- | --- |
| 6-(2-chloro-4-(5-methyl-1,2,4-oxadiazol-3-yl)phenyl)-2-(4-(1-methylpiperidin-4-yl)phenylamino)pyrido[2,3-d]pyrimidin-7(8H)-one [Example 95] | 50 to 500 nM | > 5000 nM | 50 to 500 nM | 500 to 5000 nM |  |
| Cc1cncc(-c2ccc(-c3cc4cnc(N[C@@H]5CCOC5)nc4n(C4CCNCC4)c3=O)c(Cl)c2)n1 [Example 105] | 50 to 500 nM | > 5000 nM | 50 to 500 nM | 50 to 500 nM |  |
| CCn1c(=O)c(-c2ccc(-c3cccnc3F)cc2Cl)cc2cnc(NC3CCOC3)nc21 (stereo not shown) [Example 39] | 50 to 500 nM | > 5000 nM | 50 to 500 nM | 50 to 500 nM |  |
| CCn1c(=O)c(-c2ccc(-c3cncc(C)n3)cc2Cl)cc2cnc(N[C@H]3CC[C@@H](N)CC3)nc21 [Example 86] | 50 to 500 nM | > 5000 nM | 50 to 500 nM | 500 to 5000 nM |  |
| CCn1c(=O)c(-c2ccc(-c3cncc(C)n3)cc2Cl)cc2cnc(N[C@H]3CCOC3)nc21 [Example 27] | 50 to 500 nM | > 5000 nM | < 50 nM | 50 to 500 nM |  |
| Cc1cncc(-c2ccc(-c3cc4cnc(N[C@H]5CCOC5)nc4n(CCN)c3=O)c(Cl)c2)n1 [Example 100] | 50 to 500 nM | > 5000 nM | < 50 nM | 50 to 500 nM |  |
| Cc1nccnc1-c1ccc(-c2cc3cnc(N[C@@H]4CCOC4)nc3n(Cc3ccccn3)c2=O)c(Cl)c1 [Example 123] | 50 to 500 nM | > 5000 nM | < 50 nM | 50 to 500 nM |  |
| CCn1c(=O)c(-c2ccc(-c3nccnc3C)cc2Cl)cc2cnc(NC3CCOC(C)(C)C3)nc21 (racemic) [Example 30] | < 50 nM | > 5000 nM | < 50 nM | < 50 nM |  |
| Cc1nccnc1-c1ccc(-c2cc3cnc(N[C@H]4CCOC4)nc3n(Cc3ccncc3)c2=O)c(Cl)c1 [Example 126] | 50 to 500 nM | > 5000 nM | 50 to 500 nM | 50 to 500 nM |  |
| CCn1c(=O)c(-c2ccc(-c3cncc(C)n3)cc2Cl)cc2cnc(NC3CCOC(C)(C)C3)nc21 (stereo not shown) [Example 31] | 50 to 500 nM | > 5000 nM | 50 to 500 nM | 50 to 500 nM |  |
| CCn1c(=O)c(-c2ccc(-c3cncc(C)n3)cc2Cl)cc2cnc(NCCOCCN(C)C)nc21 [Example 127, 6-(2-chloro-4-(6-methylpyrazin-2-yl)phenyl)-2-((2-(2-(dimethylamino)ethoxy)ethyl)amino)-8-ethylpyrido[2,3-d]pyrimidin-7(8H)-one] | 50 to 500 nM | > 5000 nM | 50 to 500 nM | 50 to 500 nM |  |
| CCn1c(=O)c(-c2ccc(-c3cnccc3C)cc2Cl)cc2cnc(NC3CCOCC3)nc21 [Example 47] | 50 to 500 nM | > 5000 nM | 500 to 5000 nM | 50 to 500 nM |  |
| Cc1cncc(-c2ccc(-c3cc4cnc(N[C@@H]5CCOC5)nc4n(CCCN)c3=O)c(Cl)c2)n1 [Example 97] | 50 to 500 nM | > 5000 nM | < 50 nM | 50 to 500 nM |  |
| Cc1cncc(-c2ccc(-c3cc4cnc(N[C@H]5CCOC5)nc4n(CCCN)c3=O)c(Cl)c2)n1 [Example 98] | < 50 nM | > 5000 nM | < 50 nM | < 50 nM |  |
| O=c1c(-c2ccc(-c3cccnc3)cc2Cl)cc2cnc(NC3CCOCC3)nc2n1Cc1ccccc1C(F)(F)F [Example 22] | 50 to 500 nM | > 5000 nM | < 50 nM | 50 to 500 nM |  |
| CCn1c(=O)c(-c2ccc(-c3ccnc(C)n3)cc2Cl)cc2cnc(NC3CCOCC3)nc21 [Example 8] | 50 to 500 nM | > 5000 nM | 50 to 500 nM | 50 to 500 nM |  |
| Cc1cncc(-c2ccc(-c3cc4cnc(N[C@H]5CCOC5)nc4n([C@H]4CC[C@H](N)CC4)c3=O)c(Cl)c2)n1 [Example 110] | < 50 nM | > 5000 nM | < 50 nM | < 50 nM |  |
| CCn1c(=O)c(-c2ccc(-c3nccnc3C)cc2Cl)cc2cnc(N[C@H]3CCOC(C)(C)C3)nc21 (stereo in doubt) [Example 77] | < 50 nM | > 5000 nM | < 50 nM | 50 to 500 nM |  |
| Cc1cncc(-c2ccc(-c3cc4cnc(N[C@@H]5CCOC5)nc4n(C4CCN(C)CC4)c3=O)c(Cl)c2)n1 [Example 107] | 50 to 500 nM | > 5000 nM | 50 to 500 nM | 500 to 5000 nM |  |
| CCn1c(=O)c(-c2ccc(-c3cccnc3)cc2Cl)cc2cnc(NC3CCOCC3)nc21 [Example 44] | 50 to 500 nM | > 5000 nM | 50 to 500 nM | 50 to 500 nM |  |
| CCn1c(=O)c(-c2cc(C)c(-c3noc(C)n3)cc2Cl)cc2cnc(N[C@@H]3CCOC3)nc21 [Example 92] |  |  |  | 50 to 500 nM |  |
| CCn1c(=O)c(-c2ccc(-c3cncc(C)n3)cc2Cl)cc2cnc(NCCC3CCN(C)CC3)nc21 [Example 67] |  | > 5000 nM |  |  | 50 to 500 nM |

Continued, values first:

| IC50 [1] | IC50 [2] | IC50 [3] | IC50 ([4]; read-out: PAK3 IC50) | IC50 ([4]; PAK3 IC50 (nM)) | Compound |
| --- | --- | --- | --- | --- | --- |
| 500 to 5000 nM | > 5000 nM | 500 to 5000 nM | 500 to 5000 nM |  | CCn1c(=O)c(-c2ccc(-c3ccncc3C)cc2Cl)cc2cnc(NC3CCOCC3)nc21 [Example 46] |
| < 50 nM | > 5000 nM | < 50 nM | 50 to 500 nM |  | CCn1c(=O)c(-c2ccc(-c3cncc(C)n3)cc2Cl)cc2cnc(NC3CCC(CCN(C)C)CC3)nc21 (stereo not shown) [Example 70] |
| 50 to 500 nM | > 5000 nM | < 50 nM | 50 to 500 nM |  | Cc1cncc(-c2ccc(-c3cc4cnc(NC5CCOCC5)nc4n(Cc4ccccc4)c3=O)c(Cl)c2)n1 [Example 34] |
| 500 to 5000 nM | > 5000 nM | 500 to 5000 nM | 500 to 5000 nM |  | CCn1c(=O)c(-c2cc(C)c(-c3noc(C)n3)cc2Cl)cc2cnc(N[C@@H]3CCOC3)nc21 [Example 73] |
| < 50 nM | > 5000 nM | < 50 nM | 50 to 500 nM |  | COCCCn1c(=O)c(-c2ccc(-c3cncc(C)n3)cc2Cl)cc2cnc(N[C@@H]3CCOC3)nc21 [Example 64] |
| 50 to 500 nM | > 5000 nM | 50 to 500 nM | 500 to 5000 nM |  | CCn1c(=O)c(-c2ccc(-c3cncc(C)n3)cc2Cl)cc2cnc(NCCCOCCN)nc21 [Example 133] |
| 50 to 500 nM | > 5000 nM | 50 to 500 nM | 500 to 5000 nM |  | CCn1c(=O)c(-c2ccc(-c3cnc(C)cn3)cc2Cl)cc2cnc(N[C@@H]3CCOC3)nc21 [Example 50] |
| 50 to 500 nM | > 5000 nM | 50 to 500 nM | 50 to 500 nM |  | CCn1c(=O)c(-c2ccc(-c3cncc(C)n3)cc2Cl)cc2cnc(NCC3CCC(N(C)C)CC3)nc21 (stereo not shown) [Example 132] |
| < 50 nM | > 5000 nM | < 50 nM | 50 to 500 nM |  | CCn1c(=O)c(-c2ccc(-c3cncc(C)n3)cc2Cl)cc2cnc(NC3CCOCC3)nc21 [Example 7] |
| < 50 nM | > 5000 nM | < 50 nM | 50 to 500 nM |  | CCn1c(=O)c(-c2ccc(-c3cncc(C)n3)cc2Cl)cc2cnc(NCC3CCC(N)CC3)nc21 (stereo not shown) [Example 131] |
| 50 to 500 nM | > 5000 nM | 50 to 500 nM | 50 to 500 nM |  | CCn1c(=O)c(-c2ccc(-c3nccnc3C)cc2C)cc2cnc(NC3CCOCC3)nc21 [Example 1, 8-ethyl-6-(2-methyl-4-(3-methylpyrazin-2-yl)phenyl)-2-(tetrahydro-2H-pyran-4-ylamino)pyrido[2,3-d]pyrimidin-7(8H)-one] |
| < 50 nM | > 5000 nM | < 50 nM | < 50 nM |  | Cc1nccnc1-c1ccc(-c2cc3cnc(NC4CC4)nc3n([C@H]3CC[C@H](N)CC3)c2=O)c(Cl)c1 [Example 119] |
| < 50 nM | > 5000 nM | 50 to 500 nM | 50 to 500 nM |  | CCn1c(=O)c(-c2ccc(-c3cncc(C)n3)cc2Cl)cc2cnc(NC3C[C@@H](C)O[C@@H](C)C3)nc21 (stereo partly shown) [Example 37] |
| < 50 nM | > 5000 nM | < 50 nM | 50 to 500 nM |  | Cc1cncc(-c2ccc(-c3cc4cnc(N[C@@H]5CCOC5)nc4n(CCN)c3=O)c(Cl)c2)n1 [Example 99] |
